Where “and” joins values, the source holds several entries; their conditions need not be identical. Equal values may be shown once. Toxic doses and inconclusive results are not listed. How the source made its calls: active means survival T/C of 150% or more; inactive means T/C below 125% in these data.
Tested on: P388 leukemia ip, CD2F1 mice, survival T/C
Assay: NCI In Vivo Anticancer Drug Screen. Data for tumor model P388 Leukemia (intraperitoneal) in CD2F1 (CDF1) mice
Conditions: endpoint: median survival time, higher = longer survival
In short: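 Mice carrying the transplanted tumor received test compound or vehicle. Survival was recorded in each group, and the value is the treated-group measurement divided by that of the vehicle-treated control group.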

[1] = dose: 100.0 mg/kg/injection, schedule: Q04DX002 (ip), vehicle: saline with Tween-80
[2] = dose: 200.0 mg/kg/injection, schedule: Q04DX002 (ip), vehicle: saline with Tween-80
[3] = dose: 400.0 mg/kg/injection, schedule: Q04DX002 (ip), vehicle: saline with Tween-80
[4] = dose: 50.0 mg/kg/injection, schedule: Q01DX009 (ip), vehicle: saline with Tween-80
[5] = dose: 100.0 mg/kg/injection, schedule: Q01DX009 (ip), vehicle: saline with Tween-80
[6] = dose: 200.0 mg/kg/injection, schedule: Q01DX009 (ip), vehicle: saline with Tween-80
[7] = dose: 50.0 mg/kg/injection, schedule: Q01DX005 (ip), vehicle: saline with Tween-80
[8] = dose: 100.0 mg/kg/injection, schedule: Q01DX005 (ip), vehicle: saline with Tween-80
[9] = dose: 12.5 mg/kg/injection, schedule: Q01DX005 (ip), vehicle: Klucel (hydroxypropylcellulose) (HPC)
[10] = dose: 25.0 mg/kg/injection, schedule: Q01DX005 (ip), vehicle: Klucel (hydroxypropylcellulose) (HPC)

Measured: T/C

O=[N+]([O-])c1cc(Cl)c(Cl)cc1NS(=O)(=O)c1ccccc1
inactive: dose: 150.0 mg/kg/injection, schedule: Q01DX009 (ip), vehicle: saline with Tween-80 90 % of control | dose: 150.0 mg/kg/injection, schedule: Q04DX003 (ip), vehicle: saline with Tween-80 100 % of control | dose: 300.0 mg/kg/injection, schedule: Q01DX009 (ip), vehicle: saline with Tween-80 100 % of control | dose: 300.0 mg/kg/injection, schedule: Q04DX003 (ip), vehicle: saline with Tween-80 100 % of control | dose: 600.0 mg/kg/injection, schedule: Q04DX003 (ip), vehicle: saline with Tween-80 95 % of control

N#Cc1nc(CC(=O)c2ccccn2)c(CC(=O)c2ccccn2)nc1C#N
inactive: dose: 60.0 mg/kg/injection, schedule: Q01DX005 (ip), vehicle: saline with Tween-80 111 % of control | dose: 120.0 mg/kg/injection, schedule: Q01DX005 (ip), vehicle: saline with Tween-80 93 % of control

O=C1CCSC(=S)N1c1cc(Cl)c(Cl)cc1Cl
inactive: dose: 50.0 mg/kg/injection, schedule: Q01DX009 (ip), vehicle: suspension in saline 106 % of control | dose: 100.0 mg/kg/injection, schedule: Q01DX009 (ip), vehicle: suspension in saline 108 % of control | dose: 200.0 mg/kg/injection, schedule: Q01DX009 (ip), vehicle: suspension in saline 109 % of control

C=C1CC2(CCC3(C)C(CCC4C5CCC(=O)C5(C)CCC43)C2)OC1=O (configuration not stated)
inactive: [1] 95 % of control | [2] 93 % of control | [3] 96 % of control

O=C1C=CC(=O)N1c1ccc(I)cc1Cl
inactive: [4] 106 % of control | [5] 104 % of control | [6] 96 % of control

Cc1cc(C=C2C(=O)c3ccccc3C2=O)cc(C)c1O
inactive: dose: 100.0 mg/kg/injection, schedule: Q04DX002 (ip), vehicle: saline 97 % of control | dose: 200.0 mg/kg/injection, schedule: Q04DX002 (ip), vehicle: saline 101 % of control | dose: 400.0 mg/kg/injection, schedule: Q04DX002 (ip), vehicle: saline 93 % of control

C/C(=N\NC(=O)c1cc(C)nc2ccc(Br)cc12)c1ccccc1O
inactive: [4] 88 % of control | [5] 94 % of control | [6] 110 % of control

Nc1cccc(-c2nn[nH]n2)c1
inactive: [7] 98 % of control | [8] 102 % of control | dose: 200.0 mg/kg/injection, schedule: Q01DX005 (ip), vehicle: saline with Tween-80 88 % of control

CCOC(=O)C1(c2ccccc2)SC(C(=O)OCC)(c2ccccc2)S1 (configuration not stated)
inactive: dose: 100.0 mg/kg/injection, schedule: Q04DX003 (ip), vehicle: saline 112 % of control | dose: 200.0 mg/kg/injection, schedule: Q04DX003 (ip), vehicle: saline 107 % of control | dose: 400.0 mg/kg/injection, schedule: Q04DX003 (ip), vehicle: saline 103 % of control

c1ccc(C2OCC3(CO2)COC(c2ccccc2)OC3)cc1 (configuration not stated)
inactive: [4] 90 % of control | [5] 100 % of control | [6] 90 % of control

Cc1ccc(N=Nc2c(-c3cccs3)nn(C(N)=S)c2C(F)(F)F)cc1
inactive: [9] 103 % of control | [10] 98 % of control | dose: 50.0 mg/kg/injection, schedule: Q01DX005 (ip), vehicle: Klucel (hydroxypropylcellulose) (HPC) 98 % of control

CCOC(CN/C(=C/c1ccc2ccccc2[n+]1C)SC)OCC
inactive: dose: 15.0 mg/kg/injection, schedule: Q01DX005 (ip), vehicle: saline with Tween-80 117 % of control | dose: 30.0 mg/kg/injection, schedule: Q01DX005 (ip), vehicle: saline with Tween-80 121 % of control

O=C(OC(C(F)(F)F)C(F)(F)F)c1ccccc1
inactive: dose: 100.0 mg/kg/injection, schedule: Q04DX003 (ip), vehicle: Klucel (hydroxypropylcellulose) (HPC) 105 % of control | dose: 200.0 mg/kg/injection, schedule: Q04DX003 (ip), vehicle: Klucel (hydroxypropylcellulose) (HPC) 101 % of control | dose: 400.0 mg/kg/injection, schedule: Q04DX003 (ip), vehicle: Klucel (hydroxypropylcellulose) (HPC) 109 % of control

Nc1cc(-c2ccc(Cl)cc2)nn1-c1nnc2c(n1)[nH]c1ccccc12
inactive: [1] 92 % of control | [2] 94 % of control | [3] 99 % of control

Cc1ccccc1C1OC2=C(Nc3ccccc3N2)C1=O (configuration not stated)
inactive: dose: 60.0 mg/kg/injection, schedule: Q01DX005 (ip), vehicle: Klucel (hydroxypropylcellulose) (HPC) 99 % of control | dose: 120.0 mg/kg/injection, schedule: Q01DX005 (ip), vehicle: Klucel (hydroxypropylcellulose) (HPC) 101 % of control | dose: 240.0 mg/kg/injection, schedule: Q01DX005 (ip), vehicle: Klucel (hydroxypropylcellulose) (HPC) 92 % of control

O=C(NC(Cc1ccccc1)C(=O)CBr)OCc1ccccc1 (configuration not stated)
inactive: dose: 12.5 mg/kg/injection, schedule: Q01DX001 (ip), vehicle: saline with Tween-80 100 % of control | dose: 25.0 mg/kg/injection, schedule: Q01DX001 (ip), vehicle: saline with Tween-80 104 % of control | dose: 50.0 mg/kg/injection, schedule: Q01DX001 (ip), vehicle: saline with Tween-80 109 % of control

CC(=O)c1ccc2c(c1)-c1ccccc1C(=O)C2=O
inactive: dose: 25.0 mg/kg/injection, schedule: Q01DX009 (ip), vehicle: saline 98 % of control | dose: 50.0 mg/kg/injection, schedule: Q01DX009 (ip), vehicle: saline 106 % of control and 110 % of control | dose: 100.0 mg/kg/injection, schedule: Q01DX009 (ip), vehicle: saline 113 % of control and 119 % of control

Cc1ncc(CO)c(CO)c1OCC(O)CN1CCN(C(=O)c2ccccc2)CC1 (configuration not stated)
inactive: dose: 60.0 mg/kg/injection, schedule: Q01DX005 (ip), vehicle: saline 101 % of control | dose: 120.0 mg/kg/injection, schedule: Q01DX005 (ip), vehicle: saline 104 % of control

CCO/C=C1\SC(=S)N(c2ccc(C(=O)O)cc2)C1=O
inactive: dose: 4.4 mg/kg/injection, schedule: Q01DX009 (ip), vehicle: saline with Tween-80 104 % of control | dose: 6.6 mg/kg/injection, schedule: Q01DX009 (ip), vehicle: saline with Tween-80 109 % of control | dose: 10.0 mg/kg/injection, schedule: Q01DX009 (ip), vehicle: saline with Tween-80 109 % of control | dose: 15.0 mg/kg/injection, schedule: Q01DX009 (ip), vehicle: saline with Tween-80 109 % of control | dose: 100.0 mg/kg/injection, schedule: Q04DX003 (ip), vehicle: saline with Tween-80 118 % of control | dose: 200.0 mg/kg/injection, schedule: Q04DX003 (ip), vehicle: saline with Tween-80 113 % of control

COc1ccc2nc(C)c3c(c2c1)C(=O)N(CCCN1CCN(CCCN2C(=O)c4c(C)nc5ccc(OC)cc5c4C2=O)CC1)C3=O
inactive: dose: 6.25 mg/kg/injection, schedule: Q01DX005 (ip), vehicle: Klucel (hydroxypropylcellulose) (HPC) 93 % of control | [9] 90 % of control | [10] 96 % of control

O=C(Nc1ccc(CCc2ccc(NC(=O)C34CC5CC(CC(C5)C3)C4)cc2)cc1)C12CC3CC(CC(C3)C1)C2
inactive: [7] 96 % of control | [8] 90 % of control

c1ccc2c(c1)Nc1nccnc1[Se]2
inactive: dose: 100.0 mg/kg/injection, schedule: Q04DX002 (ip), vehicle: Klucel (hydroxypropylcellulose) (HPC) 100 % of control | dose: 200.0 mg/kg/injection, schedule: Q04DX002 (ip), vehicle: Klucel (hydroxypropylcellulose) (HPC) 101 % of control | dose: 400.0 mg/kg/injection, schedule: Q04DX002 (ip), vehicle: Klucel (hydroxypropylcellulose) (HPC) 101 % of control

Source: PubChem BioAssay AID330 (DTP/NCI, 2004)
